Measured values as given in PMC8206213, “An L-2-hydroxyglutarate biosensor based on specific transcriptional regulator LhgR” (Nature Communications, 2021).
Values joined by “and” are separate entries in the source; they are usually repeats but may differ in a detail not shown here. Equal values may be shown once.

Tests used:
[1] = test system: LHGFR0N7C expressed in HEK293FT cells; assay: Specificity of LHGFR0N7C expressed in permeabilized HEK293FT cells, 1 mM compounds; type: cell-based, human (HEK293FT cells); details: Supplementary Fig. 17d; Control about 1
Method: (§1) To characterize the sensitivity and specificity of LHGFR expressed in HEK293FT cells, cells were trypsinized 48 h following transfection and suspended in 1× Hank’s balanced salt solution supplemented with 20 mM HEPES. […] Digitonin at a concentration of 10 μM was used to induce cell permeabilization and deplete intracellular L-2-HG for in vivo response curves construction. Then, the fluorescence intensities were determined by a SpectraMax i3 fluorescence plate reader (Molecular Devices, USA) with excitation at 430 nm and emission at 485 nm (mTFP) and 528 nm (Venus). Basal L-2-HG concentration in HEK293FT cells under physiological conditions was determined by substituting the emission ratios of non-permeabilized HEK293FT cells into the calibrated in vivo response curves.

[2] = test system: LHGFR0N3C expressed in HEK293FT cells; assay: Specificity of LHGFR0N3C expressed in permeabilized HEK293FT cells, 1 mM compounds; type: cell-based, human (HEK293FT cells); details: 1 mM compound, cells permeabilized with 10 μM digitonin, normalized to control
Method: as §1

[3] = test system: LHGFR0N7C expressed in E. coli BL21(DE3); assay: Specificity of LHGFR0N7C expressed in E. coli BL21(DE3), 1 mM compounds; type: cell-based; details: Supplementary Fig. 13c
Method: (§2) To characterize the sensitivity and specificity of LHGFR expressed in E. coli BL21(DE3), 90 μL cell suspensions following 8 h carbon starvation were mixed with 10 μL increasing concentrations of L-2-HG or other compounds, and then added into a black 96-well plate (total 100 μL/per well), the fluorescence intensities were determined using an EnSight microplate reader (PerkinElmer, USA) and the following instrument settings: excitation at 430 nm, emission at 485 nm (mTFP) and 528 nm (Venus), time intervals of 5 min, the temperature at 37 °C, and shake at 180 rpm.

[4] = test system: LHGFR3N7C expressed in E. coli BL21(DE3); assay: Control biosensor LHGFR3N7C expressed in E. coli, response to added compounds; type: cell-based; details: Supplementary Fig. 14a
Method: as §2

[5] = test system: LhgO; assay: Enzymatic assay of LhgO in crude extracts of P. putida KT2440 derivatives grown on different carbon sources (induction of lhgO under LhgR control); type: cell-based, Pseudomonas putida
Method: The cells were harvested at mid-log phase, washed twice and resuspended in phosphate-buffered saline (PBS), then lysed by sonication on ice after the addition of 1 mM phenylmethylsulfonyl fluoride (PMSF). […] Protein concentrations of the supernatants were determined using the Bradford protein assay kit (Sangon, China). […] The 800 μL reaction solution contained 0.1 mM […], 0.05 mM DCPIP, 0.2 mM phenazine methosulfate (PMS) in PBS and 40 μL crude extracts.

[6] = test system: LHGFR0N3C; assay: Influence of other compounds on the response of purified LHGFR0N3C to L-2-HG; type: binding, Pseudomonas putida W619; details: Suppl. Fig. 9a; L-2-HG alone or with the compound; three replicates
Method in brief: (§3)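 Purified L-2-HG biosensors were mixed 3:1 with test compounds in 50 mM Tris-HCl pH 7.4, excited at 430 nm, and the 528 nm (Venus)/485 nm (mTFP) emission was read. Responses were fitted with a Hill model giving apparent Kd and Hill slope.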

[7] = test system: LHGFR0N3C; assay: Specificity of purified LHGFR0N3C, emission ratio with 240 μM compounds; type: binding, Pseudomonas putida W619; details: 240 μM compound
[8] = test system: LHGFR0N7C; assay: Influence of other compounds on the response of purified LHGFR0N7C to L-2-HG; type: binding, Pseudomonas putida W619; details: Suppl. Fig. 9b; L-2-HG alone or with the compound; three replicates
Method in brief: as §3

[9] = test system: LHGFR0N7C; assay: Specificity of purified LHGFR0N7C, emission ratio with 240 μM compounds; type: binding, Pseudomonas putida W619; details: 240 μM compound

O=C(O)CCCC(=O)O [Glutarate, glutarate]
Normalized emission ratio [1]: 0.9993 and 0.9933 and 0.9442 | Normalized emission ratio [2]: 0.9633 and 1.016 and 1.046 | normalized emission ratio of biosensor expressed in E. coli ([3]; time 0 min): 1.0192 and 1.012 and 1.0143 | normalized emission ratio of biosensor expressed in E. coli ([3]; time 5 min): 1.029 and 1.007 and 0.9939 | normalized emission ratio of biosensor expressed in E. coli ([3]; time 10 min): 1.033 and 1.008 (2×) | normalized emission ratio of biosensor expressed in E. coli ([3]; time 15 min): 1.028 and 1.024 and 1.005 | normalized emission ratio of biosensor expressed in E. coli ([3]; time 20 min): 1.023 and 1.015 and 1.006 | normalized emission ratio of biosensor expressed in E. coli ([3]; time 25 min): 1.0228 and 1.021 and 1.005 | normalized emission ratio of biosensor expressed in E. coli ([3]; time 30 min): 1.026 and 1.014 and 1.016 | normalized emission ratio of biosensor expressed in E. coli ([3]; time 35 min): 1.019 and 1.016 (2×) | normalized emission ratio of biosensor expressed in E. coli ([3]; time 40 min): 1.0289 and 1.022 and 1.012 | normalized emission ratio of biosensor expressed in E. coli ([3]; time 45 min): 1.023 and 1.017 and 1.024 | normalized emission ratio of biosensor expressed in E. coli ([3]; time 50 min): 1.027 and 1.014 and 1.019 | normalized emission ratio of biosensor expressed in E. coli ([3]; time 55 min): 1.028 and 1.018 and 1.023 | normalized emission ratio of biosensor expressed in E. coli ([3]; time 60 min): 1.03 and 1.018 and 1.0254 | normalized emission ratio of biosensor expressed in E. coli ([3]; time 65 min): 1.027 and 1.013 and 1.037 | normalized emission ratio of biosensor expressed in E. coli ([3]; time 70 min): 1.027 and 1.018 and 1.0281 | normalized emission ratio of biosensor expressed in E. coli ([3]; time 75 min): 1.034 and 1.022 and 1.035 | normalized emission ratio of biosensor expressed in E. coli ([3]; time 80 min): 1.0287 and 1.026 and 1.039 | normalized emission ratio of biosensor expressed in E. coli ([3]; time 85 min): 1.03 and 1.021 and 1.038 | normalized emission ratio of biosensor expressed in E. coli ([3]; time 90 min): 1.036 and 1.0239 and 1.043 | normalized emission ratio of control biosensor expressed in E. coli ([4]; time 0 min): 1.008 and 0.9954 and 0.9826 and 0.9922 | normalized emission ratio of control biosensor expressed in E. coli ([4]; time 5 min): 1.009 and 0.9959 and 0.9842 and 0.997 | normalized emission ratio of control biosensor expressed in E. coli ([4]; time 10 min): 1.009 and 0.9912 and 0.9859 and 0.9988 | normalized emission ratio of control biosensor expressed in E. coli ([4]; time 15 min): 1.011 and 0.9845 and 0.9854 and 0.993 | normalized emission ratio of control biosensor expressed in E. coli ([4]; time 20 min): 1.001 (2×) and 0.9957 and 0.9921 | normalized emission ratio of control biosensor expressed in E. coli ([4]; time 25 min): 1.004 and 0.9829 and 0.99 and 1.01 | normalized emission ratio of control biosensor expressed in E. coli ([4]; time 30 min): 1.003 and 0.9825 and 0.992 and 1.008 | normalized emission ratio of control biosensor expressed in E. coli ([4]; time 35 min): 1.004 (2×) and 0.9933 and 1.0123 | normalized emission ratio of control biosensor expressed in E. coli ([4]; time 40 min): 1.001 and 1.002 and 0.9991 and 1.015 | normalized emission ratio of control biosensor expressed in E. coli ([4]; time 45 min): 1.004 and 1.003 and 1.002 and 1.015 | normalized emission ratio of control biosensor expressed in E. coli ([4]; time 50 min): 1.007 and 1.003 and 0.9994 and 1.015 | normalized emission ratio of control biosensor expressed in E. coli ([4]; time 55 min): 1.005 and 0.994 and 1.003 and 1.016 | normalized emission ratio of control biosensor expressed in E. coli ([4]; time 60 min): 1.022 and 0.993 and 1.012 and 1.027 | normalized emission ratio of control biosensor expressed in E. coli ([4]; time 65 min): 1.018 and 1.003 and 1.0048 and 1.024 | normalized emission ratio of control biosensor expressed in E. coli ([4]; time 70 min): 1.018 (2×) and 1.011 and 1.029 | normalized emission ratio of control biosensor expressed in E. coli ([4]; time 75 min): 1.029 and 0.9995 and 1.018 and 1.031 | normalized emission ratio of control biosensor expressed in E. coli ([4]; time 80 min): 1.036 and 1.008 and 1.027 and 1.028 | normalized emission ratio of control biosensor expressed in E. coli ([4]; time 85 min): 1.027 and 1.007 and 1.024 and 1.023 | normalized emission ratio of control biosensor expressed in E. coli ([4]; time 90 min): 1.042 and 1.01 and 1.0199 and 1.034 | LhgO activity ([5]; crude extract of DcsiRDcsiDDlhgO-pME6032-F2-lhgR-F1-lhgO grown with the compound as sole carbon source): no activity of LhgO was detected | LhgO activity ([5]; crude extract of DcsiRDlhgO-pME6032-F2-lhgR-F1-lhgO grown with the compound as sole carbon source): 0.02427 and 0.01721 and 0.01877 | LhgO activity ([5]; crude extract of DcsiRDlhgO-pME6032-F2-lhgR-F1-lhgO grown with the compound as sole carbon source, listed as glutarate): activity of LhgO was also detected | LhgO activity ([5]; crude extract of DcsiRDlhgO-pME6032 grown in MSM with the compound as sole carbon source): 7.09E-04 and 9.66E-04 and 0.00113 | Induction of lhgO expression / effector molecule of LhgR ([5]; gene segment F2-lhgR-F1-lhgO in P. putida KT2440 derivatives): neither D-2-HG nor glutarate can serve as the effector molecule of LhgR | Emission ratio [6]: 2.055 and 2.045 and 2.058 | Emission ratio [7]: 1.395 and 1.399 and 1.404 | Induction of emission ratio changes [7]: None | Emission ratio [8]: 2.576 and 2.574 and 2.627 | Emission ratio [9]: 1.71 (2×) and 1.717 | Induction of emission ratio changes [9]: None
